A short description of series [1]: Drug excretion in rat urine at 3 mg/kg, po measured for 4 hrs. Format: ADME, organism-based. To be noted: read-out: Drug excretion.
For series [2], the target named is Cytochrome P450 2C9 (Homo sapiens, UniProt P11712). Description: Inhibition of CYP2C9 (unknown origin). Format: ADME.
Series [3] is described as follows: Cmax in rat at 3 mg/kg, po. Format: ADME, organism-based. Further details: route oral, dose 3 mg/kg. To be noted: in vivo.
A short description of series [4]: Hepatotoxicity assessed as induction of mitochondrial (unknown origin) toxicity by measuring mitochondrial inhibitory activity at 100 uM relative to control. To be noted: mitochondria (unknown origin).
For series [5], the target named is T1, Solute carrier family 22 member 12 (Homo sapiens, UniProt Q96S37).
T1 sequence (Q96S37 whole entry): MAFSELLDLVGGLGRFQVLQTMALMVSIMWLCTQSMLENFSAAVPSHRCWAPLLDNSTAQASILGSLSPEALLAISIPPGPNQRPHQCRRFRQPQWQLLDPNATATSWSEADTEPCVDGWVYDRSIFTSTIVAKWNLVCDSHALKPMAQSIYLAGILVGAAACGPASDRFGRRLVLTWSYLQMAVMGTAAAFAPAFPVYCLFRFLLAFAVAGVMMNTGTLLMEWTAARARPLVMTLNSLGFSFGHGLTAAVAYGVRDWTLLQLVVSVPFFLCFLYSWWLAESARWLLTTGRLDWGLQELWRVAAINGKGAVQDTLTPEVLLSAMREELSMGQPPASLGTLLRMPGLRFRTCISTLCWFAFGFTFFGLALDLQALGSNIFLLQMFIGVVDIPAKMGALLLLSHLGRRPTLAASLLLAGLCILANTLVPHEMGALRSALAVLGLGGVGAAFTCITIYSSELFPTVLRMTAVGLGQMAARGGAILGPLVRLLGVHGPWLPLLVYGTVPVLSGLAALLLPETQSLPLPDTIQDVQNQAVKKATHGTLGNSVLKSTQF
Nature of the series: Inhibition of URAT1 (unknown origin)-mediated uric acid uptake at 3 uM relative to control.

Series [6] in a line: Inhibition of uric acid uptake in human RPTEC. In kind it is functional, tissue-based.
The nature of series [7]: Hepatotoxicity assessed as induction of mitochondrial (unknown origin) toxicity by measuring mitochondrial inhibitory activity. To be noted: mitochondria (unknown origin).
Series [8] concerns Sapajus apella. Description: Uricosuric activity in Cebus apella assessed as decrease in plasma urate level at 300 mg/kg, po measured for 24 hrs. Format: functional, organism-based.

The text below walks through data of ChEMBL document CHEMBL4732254, “Novel monocyclic amide-linked phenol derivatives without mitochondrial toxicity have potent uric acid-lowering activity” (Bioorg Med Chem Lett, 2021).

pIC50: −log10 of the molar value. Activity calls are given as the source filed them. No cut-off for these calls is given here. Where only a bound is given, the exact number is not on record here.

Sequence of Cytochrome P450 2C9 (P11712 whole entry): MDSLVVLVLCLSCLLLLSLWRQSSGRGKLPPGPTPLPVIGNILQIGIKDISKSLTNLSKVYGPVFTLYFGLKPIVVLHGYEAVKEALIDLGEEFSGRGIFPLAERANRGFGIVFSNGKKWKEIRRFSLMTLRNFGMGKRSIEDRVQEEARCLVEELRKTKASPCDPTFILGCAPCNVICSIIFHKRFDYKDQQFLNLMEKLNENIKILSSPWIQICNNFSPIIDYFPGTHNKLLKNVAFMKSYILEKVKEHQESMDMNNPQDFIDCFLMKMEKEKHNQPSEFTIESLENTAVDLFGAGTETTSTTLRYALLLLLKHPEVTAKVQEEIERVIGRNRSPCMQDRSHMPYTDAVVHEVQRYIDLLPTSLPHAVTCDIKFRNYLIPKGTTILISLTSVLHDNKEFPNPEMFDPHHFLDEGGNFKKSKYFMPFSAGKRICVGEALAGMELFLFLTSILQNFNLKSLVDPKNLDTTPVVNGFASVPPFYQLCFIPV

As to `CC1=CCN(C(=O)c2cc(C#N)c(O)c(C(F)(F)F)c2)C1`, the dose excreted at 4 h in series [1] amounted to 10%. In addition, the pIC50 (commonly the IC50 on a negative log10 scale, so that one unit is a factor of ten) in series [2] is 4.03; in series [6], 3.86. Further, the Cmax (usually the maximum level reached in the sampled fluid or tissue) in series [3] came out at 2220 ng/mL. Further, the inhibition (usually the relative decrease from the control value, in per cent) at 100 µM in series [4] was 9%. Besides, the inhibition at 3 µM in series [5] is 88%.

Consider `N#Cc1cc(C(=O)N2CC=CC2)cc(C2CC2)c1O`, for which the inhibition at 100 µM in series [4] was -7%. The inhibition at 3 µM in series [5] is 69%. Besides, the pIC50 in series [6] was < 3.00.

Regarding `CC(C)(C)c1cc(C(=O)N2CCCC2)cc(C#N)c1O`, the negative logarithm of the IC50 (pIC50) in series [7] was < 4.00; in series [6], < 3.00. In series [4], the inhibition at 100 µM amounted to 22%. Besides, the inhibition at 3 µM in series [5] was found to be 84%.

On to `N#Cc1cc(C(=O)N2CCS(=O)(=O)C2)cc(C(F)(F)F)c1O`, for which the inhibition at 100 µM in series [4] was -3%. Moreover, the inhibition at 3 µM in series [5] came to 55%. The molecule also had a pIC50 in series [6] of 3.57.

Turning to `N#Cc1cc(C(=O)N2CC=CC2)cc(C(F)(F)F)c1O`, the dose excreted at 4 h in series [1] worked out at 23%. The pIC50 in series [2] was 4.28; in series [6], 3.09. The result in series [8] was Active. The same molecule displayed a Cmax in series [3] of 2610 ng/mL. For the same molecule, in series [4], the inhibition at 100 µM is -1%. Moreover, the inhibition at 3 µM in series [5] was 83%.

Turning to `N#Cc1cc(C(=O)N2CC=CC2)cc(Cl)c1O`, the inhibition at 100 µM in series [4] was found to be 5%. In addition, in series [5], the inhibition at 3 µM worked out at 66%. In series [6], the negative-log IC50 (pIC50) was < 3.00.

For `N#Cc1cc(C(=O)N2CCSC2)cc(C(F)(F)F)c1O`, the dose excreted at 4 h in series [1] was found to be 9%. Also, the pIC50 in series [2] was < 4.00; in series [6] it was 3.69. The molecule also had a Cmax in series [3] of 3700 ng/mL. In addition, the inhibition at 100 µM in series [4] was 29%. Also, the inhibition at 3 µM in series [5] is 84%.

Consider `O=C(C1=CCCC1)c1cc(Br)c(O)c(Br)c1`, for which the negative logarithm of the IC50 (pIC50) in series [7] is 5.18.

With `CSc1cc(C(=O)N2CC=CC2)cc(C#N)c1O`, in series [4], the inhibition at 100 µM worked out at 6%. Further, in series [5], the inhibition at 3 µM stood at 58%. Besides, in series [6], the pIC50 is < 3.00.

Consider `CC(C)(C)c1cc(C(=O)N2CCSC2)cc(C#N)c1O`, for which the pIC50 was 4.57 in series [7] and 3.59 in series [6]. The inhibition at 100 µM in series [4] came out at 77%. In addition, the inhibition at 3 µM in series [5] amounted to 92%.

With `CCCc1cc(C(=O)N2CC=CC2)cc(C(F)(F)F)c1O`, the inhibition at 100 µM in series [4] was 47%. In series [5], the inhibition at 3 µM came to 49%. This molecule also gave a negative-log IC50 (pIC50) in series [6] of 3.04.

Take `O=C(C1=CCCC1)c1cc(Cl)c(O)c(Cl)c1`: the negative-log IC50 (pIC50) in series [7] is 5.00.

For the molecule `Cc1cc(C(=O)N2CC=CC2)cc(C#N)c1O`, the inhibition at 100 µM in series [4] was -10%. In series [5], the inhibition at 3 µM is 25%. Moreover, the pIC50 in series [6] is < 3.00.

As to `N#Cc1cc(C(=O)N2CC=CC2)cc(I)c1O`, the inhibition at 100 µM in series [4] was 8%. Further, the inhibition at 3 µM in series [5] amounted to 79%. Further, in series [6], the negative logarithm of the IC50 (pIC50) was < 3.00.

Turning to `O=C(c1cc(Br)c(O)c(Br)c1)N1CC=CC1`, the pIC50 in series [7] was < 4.00. In series [4], the inhibition at 100 µM came out at 22%.

Consider `CC(C)(C)c1cc(C(=O)N2CCC2)cc(C#N)c1O`, for which the inhibition at 100 µM in series [4] was 41%. Moreover, in series [5], the inhibition at 3 µM worked out at 71%. Besides, in series [6], the pIC50 is < 3.00.

For `N#Cc1cc(C(=O)N2CCC2)cc(C(F)(F)F)c1O`, in series [4], the inhibition at 100 µM came to 17%. Besides, the inhibition at 3 µM in series [5] came out at 75%. The pIC50 in series [6] is < 3.00.

Turning to `CCc1oc2ccccc2c1C(=O)c1cc(Br)c(O)c(Br)c1` [BENZBROMARONE], the figures for the pIC50 in series [7] and in series [6] were 5.51 and 5.17, respectively. Moreover, in series [5], the inhibition at 3 µM turned out to be 91%.

As for `CCc1cc(C(=O)n2cccc2)cc(C#N)c1O`, the results for the negative-log IC50 (pIC50) in series [7] and in series [6] were 5.17 and < 3.00, respectively. In addition, in series [5], the inhibition at 3 µM was found to be 83%.

`CCCc1cc(C(=O)N2CC=CC2)cc(C#N)c1O`: in series [4], the inhibition at 100 µM was determined as 7%. Besides, the inhibition at 3 µM in series [5] came out at 70%. Moreover, the pIC50 in series [6] is < 3.00.

Turning to `N#Cc1cc(C(=O)N2CCCC2)cc(C(F)(F)F)c1O`, the inhibition at 100 µM in series [4] is 18%. The inhibition at 3 µM in series [5] turned out to be 66%. Moreover, in series [6], the pIC50 was < 3.00.

For the molecule `N#Cc1cc(C(=O)N2CCSC2)cc(C#N)c1O`, the inhibition at 100 µM in series [4] was 23%. In addition, the inhibition at 3 µM in series [5] worked out at 62%. For the same molecule, the pIC50 in series [6] is 3.21.

As to `N#Cc1cc(C(=O)N2CCSC2)cc(Br)c1O`, the inhibition at 100 µM in series [4] was 23%. Also, the inhibition at 3 µM in series [5] worked out at 72%. The same molecule showed a negative-log IC50 (pIC50) in series [6] of 3.40.

`CCc1cc(C(=O)N2CC=CC2)cc(C#N)c1O`: the pIC50 in series [7] was < 4.00; in series [6], < 3.00. In addition, in series [4], the inhibition at 100 µM came to 17%. Further, the inhibition at 3 µM in series [5] amounted to 54%.

Take `CCc1cc(C(=O)N2CCSC2)cc(C#N)c1O`: the dose excreted at 4 h in series [1] was 9.5%. In addition, the inhibition at 100 µM in series [4] came out at 25%. Also, the inhibition at 3 µM in series [5] came to 67%. The molecule also gave a negative logarithm of the IC50 (pIC50) in series [6] of 3.91.

With `N#Cc1cc(C(=O)N2CC=CC2)cc(Br)c1O`, in series [4], the inhibition at 100 µM is 0%. Also, in series [5], the inhibition at 3 µM stood at 69%. In addition, the pIC50 in series [6] is 3.13.

For `O=C(c1cc(Cl)c(O)c(Cl)c1)N1CS(=O)(=O)c2ccccc21` [DOTINURAD], the negative-log IC50 (pIC50) in series [2] is 5.24.

Consider `CC(C)(C)c1cc(C(=O)N2CC=CC2)cc(C#N)c1O`, for which the negative-log IC50 (pIC50) is 4.19 in series [7] and 3.51 in series [6]. Besides, the inhibition at 100 µM in series [4] was 60%. In addition, in series [5], the inhibition at 3 µM amounted to 92%.
